Assay: Polymorph screening (suspension, anti-solvent, gas-liquid diffusion, slow volatilization methods), resulting form by XRPD
Type: physicochemical
Conditions: for XRPD results: methanol solution, no precipitation, open-to-air volatilization
Experimental: The sample was quickly centrifuged (6000 rpm, 5 min) to remove a supernatant. The resulting precipitate was subjected to vacuum drying (40° C., −0.1 MPa) for 20 h, followed by physical characterization.
The resulting precipitate was subjected to vacuum drying at 40° C. for 20 h, followed by physical characterization.
No clear solution was obtained, and the sample was still undissolved after 1 mL of solvent was added. Then, 500 μL of poor solvent (acetone, ACN, MeOH, EtOAc, THE, or […]) was added, and 40 mg of the sample was added to perform an experiment by a suspension method. All suspension samples were stirred at 50° C. for 2 days and quickly centrifuged (6000 rpm, 5 min) to remove a supernatant. The resulting solid was subjected to vacuum drying at 40° C. for 20 h, followed by physical characterization.
The compound of formula I was subjected to polymorph screening with DCM as a good solvent and with MeOH, EtOH, THE, or EA as an anti-solvent, and was dissolved in both DCM and MeOH systems. The suspension sample was stirred for 2 days and quickly centrifuged to remove a supernatant. The resulting precipitate was subjected to vacuum drying at 25° C. for 20 h, followed by physical characterization.
The resulting precipitate was subjected to vacuum drying at room temperature for 20 h, followed by physical characterization.
The resulting precipitate was subjected to vacuum drying for 20 h.
Sonication was performed for 1 min to obtain a clear solution, which was filtered through a 0.22 μm filter membrane and aliquoted into seven 8 mL glass flasks. An anti-solvent was added until precipitation occurred. The sample was stirred at room temperature for 1 day and quickly centrifuged. The resulting solid precipitate was subjected to vacuum drying.
Then, an anti-solvent was added until precipitation occurred, and the mixture was stirred at room temperature overnight and quickly centrifuged (6000 rpm, 6 min) to remove a supernatant. The resulting precipitate was subjected to vacuum drying for 20 h.
Then, the solution was added to a 20 mL glass flask containing 2 mL of an anti-solvent (shown in the following table), and the flask was tightly capped at room temperature and placed in a fume hood for diffusion. When precipitation occurred, the flask was taken out, and the resulting precipitate was subjected to vacuum drying for 20 h.
The flask placed in a fume hood at room temperature for diffusion. When precipitation occurred, the flask was taken out, and the resulting precipitate was subjected to vacuum drying for 20 h.
The mixture was stirred at 50° C. or room temperature for 6 days and quickly centrifuged (6000 rpm, […]) to remove a supernatant. The resulting precipitate was subjected to vacuum drying for 20 h.

[1] = solvent 1,4-Dixoane, suspension, 6 days

Question: Which results are given for CC(C)N1Cc2cc(C(F)(F)F)ncc2-c2cnc(NCc3c(F)ccc4c3CCO4)n3cnc(c23)C1=O?
Answer: Crystalline form results 50° C. [1]: 1,4-dioxane solvate; Crystalline form results Room temperature [1]: 1,4-dioxane solvate

Question: With CC(C)N1Cc2cc(C(F)(F)F)ncc2-c2cnc(NCc3c(F)ccc4c3CCO4)n3cnc(c23)C1=O.Cl as the compound, how does the Crystalline form results (solvent 1,4-dioxane, suspension, 40° C., 3 days, from crystalline form A of hydrochloride salt) read?
Answer: Crystalline form A of hydrochloride salt

Question: What about the Crystalline form results (solvent 88% acetone, suspension, 40° C., 3 days, from crystalline form A of hydrochloride salt) of the same compound?
Answer: Crystalline form B

Question: And the Crystalline form results (solvent ACN, suspension, 40° C., 3 days, from crystalline form A of hydrochloride salt)?
Answer: Crystalline form A of hydrochloride salt

Question: What about the Crystalline form results (solvent Acetone, suspension, 40° C., 3 days, from crystalline form A of hydrochloride salt) of the same compound?
Answer: Crystalline form A of hydrochloride salt

Question: And the Crystalline form results (solvent EtOAc, suspension, 40° C., 3 days, from crystalline form A of hydrochloride salt)?
Answer: Crystalline form A of hydrochloride salt

Question: And the Crystalline form results (solvent EtOH, suspension, 40° C., 3 days, from crystalline form A of hydrochloride salt)?
Answer: Ethanol solvate of hydrochloride salt

Question: And the Crystalline form results (solvent EtOH—H2O = 3-1, suspension, 40° C., 3 days, from crystalline form A of hydrochloride salt)?
Answer: Crystalline form A

Question: What about the Crystalline form results (solvent H2O, suspension, 40° C., 3 days, from crystalline form A of hydrochloride salt) of the same compound?
Answer: Crystalline form A of hydrochloride salt

Question: What about the Crystalline form results (solvent IPA, suspension, 40° C., 3 days, from crystalline form A of hydrochloride salt) of the same compound?
Answer: Isopropanol solvate of hydrochloride salt

Question: What about the Crystalline form results (solvent MeOH, suspension, 40° C., 3 days, from crystalline form A of hydrochloride salt) of the same compound?
Answer: Partial dissociation into crystalline form A

Question: And the Crystalline form results (solvent MeOH—H2O = 3-1, suspension, 40° C., 3 days, from crystalline form A of hydrochloride salt)?
Answer: Crystalline form A

Question: And the Crystalline form results (solvent Toluene, suspension, 40° C., 3 days, from crystalline form A of hydrochloride salt)?
Answer: Crystalline form A of hydrochloride salt

Question: And the Crystalline form results (solvent n-butanol, suspension, 40° C., 3 days, from crystalline form A of hydrochloride salt)?
Answer: Crystalline form A of hydrochloride salt

Question: Which Crystalline form results (anti-solvent method, good solvent DCM/MeOH = 2-1 (20 mg/mL), anti-solvent Methyl acetate, room temperature overnight) does the source give for CC(C)N1Cc2cc(C(F)(F)F)ncc2-c2cnc(NCc3c(F)ccc4c3CCO4)n3cnc(c23)C1=O.CS(=O)(=O)O here?
Answer: No precipitation

Question: And the Crystalline form results (anti-solvent method, good solvent DMF (50 mg/mL), anti-solvent Acetonitrile, room temperature overnight)?
Answer: Crystalline form A

Question: And the Crystalline form results (anti-solvent method, good solvent DMF (50 mg/mL), anti-solvent Dimethyl tetrahydrofuran, room temperature overnight)?
Answer: No precipitation

Question: What about the Crystalline form results (anti-solvent method, good solvent DMF (50 mg/mL), anti-solvent Methyl acetate, room temperature overnight) of the same compound?
Answer: Dissociation into a free base

Question: What about the Crystalline form results (anti-solvent method, good solvent DMF (50 mg/mL), anti-solvent n-heptane, room temperature overnight) of the same compound?
Answer: No precipitation

Question: And the Crystalline form results (anti-solvent method, good solvent MeOH (10 mg/mL), anti-solvent Acetonitrile, room temperature overnight)?
Answer: No precipitation

Question: And the Crystalline form results (anti-solvent method, good solvent MeOH (10 mg/mL), anti-solvent Dimethyl tetrahydrofuran, room temperature overnight)?
Answer: No precipitation

Question: What about the Crystalline form results (anti-solvent method, good solvent MeOH (10 mg/mL), anti-solvent Methyl acetate, room temperature overnight) of the same compound?
Answer: No precipitation

Question: What about the Crystalline form results (anti-solvent method, good solvent MeOH (10 mg/mL), anti-solvent n-heptane, room temperature overnight) of the same compound?
Answer: No precipitation

Question: And the Crystalline form results (anti-solvent method, good solvent NMP (50 mg/mL), anti-solvent Acetonitrile, room temperature overnight)?
Answer: Presumably an NMP solvate

Question: What about the Crystalline form results (anti-solvent method, good solvent NMP (50 mg/mL), anti-solvent Dimethyl tetrahydrofuran, room temperature overnight) of the same compound?
Answer: Presumably an NMP solvate

Question: What about the Crystalline form results (anti-solvent method, good solvent NMP (50 mg/mL), anti-solvent Ethyl acetate, room temperature overnight) of the same compound?
Answer: Dissociation into a free base

Question: And the Crystalline form results (anti-solvent method, good solvent NMP (50 mg/mL), anti-solvent Methyl acetate, room temperature overnight)?
Answer: Presumably an NMP solvate

Question: What about the Crystalline form results (anti-solvent method, good solvent NMP (50 mg/mL), anti-solvent Tert-butyl methyl ether, room temperature overnight) of the same compound?
Answer: Presumably an NMP solvate

Question: And the Crystalline form results (anti-solvent method, good solvent NMP (50 mg/mL), anti-solvent n-heptane, room temperature overnight)?
Answer: Presumably an NMP solvate

Question: What about the Crystalline form results (gas-liquid diffusion method, good solvent DMF (50 mg/mL), anti-solvent 2-MeTHF, room temperature) of the same compound?
Answer: No precipitation

Question: And the Crystalline form results (gas-liquid diffusion method, good solvent DMF (50 mg/mL), anti-solvent ACN, room temperature)?
Answer: No precipitation

Question: And the Crystalline form results (gas-liquid diffusion method, good solvent DMF (50 mg/mL), anti-solvent EtOAc, room temperature)?
Answer: No precipitation

Question: What about the Crystalline form results (gas-liquid diffusion method, good solvent DMF (50 mg/mL), anti-solvent FA, room temperature) of the same compound?
Answer: No precipitation

Question: And the Crystalline form results (gas-liquid diffusion method, good solvent DMF (50 mg/mL), anti-solvent Heptane, room temperature)?
Answer: No precipitation

Question: What about the Crystalline form results (gas-liquid diffusion method, good solvent DMF (50 mg/mL), anti-solvent MTBE, room temperature) of the same compound?
Answer: No precipitation

Question: And the Crystalline form results (gas-liquid diffusion method, good solvent MeOH (10 mg/mL), anti-solvent 2-MeTHF, room temperature)?
Answer: No precipitation

Question: And the Crystalline form results (gas-liquid diffusion method, good solvent MeOH (10 mg/mL), anti-solvent ACN, room temperature)?
Answer: No precipitation

Question: What about the Crystalline form results (gas-liquid diffusion method, good solvent MeOH (10 mg/mL), anti-solvent FA, room temperature) of the same compound?
Answer: No precipitation

Question: What about the Crystalline form results (gas-liquid diffusion method, good solvent MeOH (10 mg/mL), anti-solvent Heptane, room temperature) of the same compound?
Answer: No precipitation

Question: And the Crystalline form results (gas-liquid diffusion method, good solvent NMP (50 mg/mL), anti-solvent 2-MeTHF, room temperature)?
Answer: Possibly an NMP solvate

Question: What about the Crystalline form results (gas-liquid diffusion method, good solvent NMP (50 mg/mL), anti-solvent ACN, room temperature) of the same compound?
Answer: Possibly an NMP solvate

Question: What about the Crystalline form results (gas-liquid diffusion method, good solvent NMP (50 mg/mL), anti-solvent EtOAc, room temperature) of the same compound?
Answer: Dissociation into a free base

Question: And the Crystalline form results (gas-liquid diffusion method, good solvent NMP (50 mg/mL), anti-solvent FA, room temperature)?
Answer: Possibly an NMP solvate

Question: And the Crystalline form results (gas-liquid diffusion method, good solvent NMP (50 mg/mL), anti-solvent Heptane, room temperature)?
Answer: Possibly an NMP solvate

Question: What about the Crystalline form results (gas-liquid diffusion method, good solvent NMP (50 mg/mL), anti-solvent MTBE, room temperature) of the same compound?
Answer: Possibly an NMP solvate

Question: And the Crystalline form results (slow volatilization method, solvent DCM/MeOH = 2-1, room temperature)?
Answer: Crystalline form B

Question: And the Crystalline form results (slow volatilization method, solvent EtOH/EA = 2-1, room temperature)?
Answer: Crystalline form A

Question: What about the Crystalline form results (slow volatilization method, solvent EtOH, room temperature) of the same compound?
Answer: Crystalline form B

Question: And the Crystalline form results (slow volatilization method, solvent MeOH/FA = 2-1, room temperature)?
Answer: Crystalline form B

Question: And the Crystalline form results (slow volatilization method, solvent MeOH, room temperature)?
Answer: Crystalline form A

Question: What about the Crystalline form results (solvent ACN—H2O 1-1, initial crystalline form A of methanesulfonate salt) of the same compound?
Answer: Crystalline form A

Question: And the Crystalline form results (solvent H2O, initial crystalline form A of methanesulfonate salt)?
Answer: Crystalline form A

Question: What about the Crystalline form results (solvent MeOH—H2O 1-1, initial crystalline form A of methanesulfonate salt) of the same compound?
Answer: Crystalline form A

Question: With CC(C)N1Cc2cc(C(F)(F)F)ncc2-c2cnc(NCc3c(F)ccc4c3CCO4)n3cnc(c23)C1=O.O=S(=O)(O)O as the compound, how does the XRPD results (anti-solvent method, anti-solvent Acetone) read?
Answer: Crystalline form B

Question: What about the XRPD results (anti-solvent method, anti-solvent Heptane) of the same compound?
Answer: Crystalline form A

Question: What about the Crystalline form results (solvent 88% acetone, suspension, 40° C., 3 days, from crystalline form A of sulfate salt) of the same compound?
Answer: Crystalline form B

Question: And the Crystalline form results (solvent ACN, suspension, 40° C., 3 days, from crystalline form A of sulfate salt)?
Answer: Crystalline form A of sulfate salt

Question: What about the Crystalline form results (solvent ACN—H2O = 1:1, suspension, 40° C., 3 days, from crystalline form A of sulfate salt) of the same compound?
Answer: Crystalline form A

Question: What about the Crystalline form results (solvent Acetone, suspension, 40° C., 3 days, from crystalline form A of sulfate salt) of the same compound?
Answer: Crystalline form A of sulfate salt

Question: And the Crystalline form results (solvent DCM/MeOH = 1:1, suspension, 40° C., 3 days, from crystalline form A of sulfate salt)?
Answer: Crystalline form A

Question: What about the Crystalline form results (solvent EtOAc, suspension, 40° C., 3 days, from crystalline form A of sulfate salt) of the same compound?
Answer: Sulfate salt forming into sulfate

Question: And the Crystalline form results (solvent EtOH, suspension, 40° C., 3 days, from crystalline form A of sulfate salt)?
Answer: Sulfate salt forming into sulfate

Question: What about the Crystalline form results (solvent EtOH—H2O = 3:1, suspension, 40° C., 3 days, from crystalline form A of sulfate salt) of the same compound?
Answer: Crystalline form A

Question: And the Crystalline form results (solvent IPA, suspension, 40° C., 3 days, from crystalline form A of sulfate salt)?
Answer: Sulfate salt forming into sulfate

Question: What about the Crystalline form results (solvent MeOH, suspension, 40° C., 3 days, from crystalline form A of sulfate salt) of the same compound?
Answer: Crystalline form A

Question: What about the Crystalline form results (solvent MeOH—H2O = 3:1, suspension, 40° C., 3 days, from crystalline form A of sulfate salt) of the same compound?
Answer: Crystalline form A

Question: What about the Crystalline form results (solvent THF, suspension, 40° C., 3 days, from crystalline form A of sulfate salt) of the same compound?
Answer: Crystalline form A of sulfate salt

Question: And the Crystalline form results (solvent Toluene, suspension, 40° C., 3 days, from crystalline form A of sulfate salt)?
Answer: Crystalline form A of sulfate salt

Source: patent US20250109134A1 (Ascentage Pharma (Suzhou) Co., Ltd., priority 2022, published 2025)
